Source: patent US20250296938A1, “Compounds that Interact with the Ras Superfamily for the Treatment of Cancers, Inflammatory Diseases, Rasopathies, and Fibrotic Disease” (SHY Therapeutics, LLC, priority 2018, published 2025)
Like-named read-outs stand apart in the source and are kept apart here.

Columns and labels:
[1] = system: MIA PaCa-2 pancreatic cancer cell line; assay: Cell proliferation assay (DAPI); format: cell-based; settings: Homo sapiens, MIA PaCa-2; for inhibition at 10 µM: 2-4 days, read-out: % Inhibition of cell proliferation, MIA PaCa-2 % inh
Description: Cell lines: Human NSCLC cells NCI-H1975 and NCI-H1299, and tumor-derived pancreatic cancer cell lines Panc-1, MIA-PACA2, and BxPC3, were all purchased from American Type Culture Collection and grown in complete RPMI medium (BxPC3, NCI-H1975 and NCI-H1299) or DMEM-High Glucose (Panc1 and MIA-PaCa-2), supplemented with penicillin (100 U/mL), streptomycin (100 μg/mL), and 10% heat-inactivated FBS at 37° C. in a humidified incubator with 5% CO2.
Method: Cells were plated at 2000 to 5000 cells/well density in 96-wells plate and cultured ON. Small molecules to be tested were added to the cells in the final concentration of 10 µM in the presence of 0.3% DMSO and 10% FBS, and incubated for 2-4 days at 37° C. in a humidified incubator with 5% CO2. For IC50 value determination, serial dilutions of compounds were added to cells under the same conditions.
Assay: At the end of the incubation period, cell cultures were fixed with a 50-50 mixture (v/v) acetone-methanol for 10 minutes at −20° C., followed by rehydration in PBS for 10 minutes at room temperature. DNA total content was determined by staining cells with DAPI (1 ug/ml) in PBS for 10 minutes at room temperature, followed by 3 washes with PBS. After staining, DAPI fluorescence was recorded (358 nm excitation/461 nm emission) with the 96-well plate reader Molecular Devices Spectramax M3; degree of small molecule-dependent proliferation inhibition was calculated from raw data.

Rac-1 = Rac-1 (Homo sapiens, UniProt P63000); assay: Ras GTP binding domain inhibition assay (Cy3-GTP/Cy5-GTP competition)
How it was run: (§1)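 Compounds tested at 20 μM or in serial dilution for IC50 against nickel-captured His-tagged GTPase, 3 hours at room temperature, with or without His-Sos GEF added for last hour. Fluorescent GTP then added at 100 nM for 45 minutes; wells washed, bound label measured by fluorescence.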

Rho-A = Rho-A (Homo sapiens, UniProt P61586); assay: as above
How it was run: as §1

KRas G12D mutant = target: T1, KRas G12D mutant (Homo sapiens, UniProt P01116, G12D); assay: as above; settings: at 20 μM
T1 construct: fused on or other part: His tag, used for capture on nickel-coated plates
How it was run: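 His-tagged Ras proteins were captured on nickel-coated wells in Buffer-I (25 mM Tris-HCl pH 7.4, 27 mM KCl, 137 mM NaCl, 1 mM MgCl2, 1 mM DTT) or Buffer-II (50 mM Tris-HCl pH 7.0). Compounds (20 μM or serial dilution, 1% DMSO) were incubated 3 h at RT, ±Sos(556-1049) in the final hour. Bound Cy3-/Cy5-GTP (100 nM, 45 min) was read after washing.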

Structure (SMILES)	inhibition at 10 µM [1]	further results
COCCNc1nc(-c2cn(C)cn2)nc2sc(-c3cccc(OC)c3Cl)c(-c3ccc(OC)cc3)c12 [drawing 565]	76 to 100%	
COCCNc1nc(-c2cn(C)cn2)nc2sc(-c3cc(OC)ccc3Cl)c(-c3ccc(OC)cc3)c12 [drawing 566]	76 to 100%	
COCCNc1nc(-c2nccn2C)nc2sc(-c3cc(OC)ccc3Cl)c(-c3ccccc3)c12 [drawing 568]	76 to 100%	IC50 [1]: > 1 µM
COc1cc(-c2sc3nc(-c4nccn4C)nc(N4CCC(OC)C4)c3c2-c2ccccc2)ccn1 (stereo not drawn) [drawing 569]	76 to 100%	
COC1CCN(c2nc(-c3nccn3C)nc3sc(-c4ccnn4C)c(-c4ccccc4)c23)C1 (stereo not drawn) [drawing 570]	26 to 50%	
COC1CCN(c2nc(-c3nccn3C)nc3sc(-c4cccnc4)c(-c4ccccc4)c23)C1 (stereo not drawn) [drawing 571]	76 to 100%	
COc1ccc(-c2sc3nc(-c4nccn4C)nc(N4CCC(OC)C4)c3c2-c2ccccc2)cn1 (stereo not drawn) [drawing 572]	76 to 100%	
COc1ncccc1-c1sc2nc(-c3nccn3C)nc(N3CCC(OC)C3)c2c1-c1ccccc1 (stereo not drawn) [drawing 573]	76 to 100%	
COC1CCN(c2nc(-c3nccn3C)nc3sc(-c4cnc(C5CC5)o4)c(-c4ccccc4)c23)C1 (stereo not drawn) [drawing 574]	76 to 100%	
COCCn1cc(-c2sc3nc(-c4nccn4C)nc(N4CCC(OC)C4)c3c2-c2ccccc2)cn1 (stereo not drawn) [drawing 575]	76 to 100%	
COC1CCN(c2nc(-c3nccn3C)nc3sc(-c4ccncc4C)c(-c4ccccc4)c23)C1 (stereo not drawn) [drawing 576]	76 to 100%	
COC1CCN(c2nc(-c3nccn3C)nc3sc(-c4cnn(C)c4)c(-c4ccccc4)c23)C1 (stereo not drawn) [drawing 577]	76 to 100%	
COC1CCN(c2nc(-c3nccn3C)nc3sc(-c4ccc(CO)cc4)c(-c4ccccc4)c23)C1 (stereo not drawn) [drawing 578]	76 to 100%	
COC1CCN(c2nc(-c3nccn3C)nc3sc(-c4ccc(N)nc4C)c(-c4ccccc4)c23)C1 (stereo not drawn) [drawing 579]	76 to 100%	
COC1CCN(c2nc(-c3nccn3C)nc3sc(-c4ccccc4CO)c(-c4ccccc4)c23)C1 (stereo not drawn) [drawing 580]	76 to 100%	
COc1nscc1-c1sc2nc(-c3nccn3C)nc(N3CCC(OC)C3)c2c1-c1ccccc1 (stereo not drawn) [drawing 581]	76 to 100%	
COC1CCN(c2nc(-c3nccn3C)nc3sc(-c4ccnc(N(C)C)c4)c(-c4ccccc4)c23)C1 (stereo not drawn) [drawing 582]	76 to 100%	
COC1CCN(c2nc(-c3nccn3C)nc3sc(Br)c(-c4ccccc4)c23)C1 (stereo not drawn) [drawing 583]	76 to 100%	
COc1ccc(-c2c(-c3cccc(OC)c3F)sc3nc(-c4nccn4C)nc(N4CCC(OC)C4)c23)cc1 (stereo not drawn) [drawing 584]	76 to 100%	
COCC1CN(c2nc(-c3nccn3C)nc3sc(-c4cccc(OC)c4F)c(-c4ccc(OC)cc4)c23)C1 [drawing 585]	76 to 100%	
COc1cccc(-c2sc3nc(-c4nccn4C)nc(N4CCC(OC)C4)c3c2-c2ccccc2)c1F (stereo not drawn) [drawing 586]	76 to 100%	
COc1c(O)nc(-c2ccccn2)nc1Oc1cnn(C)c1 [drawing 587]	0%	
COc1c(O)nc(-c2ccccn2)nc1Oc1ccc2ncccc2c1 [drawing 588]	1 to 25%	
COc1c(O)nc(-c2ccccn2)nc1Oc1cccnc1 [drawing 589]	0%	
COc1cccc(Oc2nc(-c3ccccn3)nc(O)c2OC)c1 [drawing 590]	0%	
COc1ccc(Oc2nc(-c3ccccn3)nc(O)c2OC)cc1 [drawing 591]	26 to 50%	
CO[C@H]1CC[C@@H](Nc2nc(-c3nccn3C)nc3sc(C(=O)N4CCOCC4)c(-c4ccccc4)c23)C1 [drawing 1062]		inhibition at 20 µM (Rac-1; with SOS, read-out: Rac-1 + SOS: % inh.): 76 to 100%; inhibition at 20 µM (Rac-1; without SOS, read-out: Rac-1: % inh.): 76 to 100%; inhibition at 20 µM (Rho-A; with SOS, read-out: Rho-A + SOS: % inh.): 76 to 100%; inhibition at 20 µM (Rho-A; without SOS, read-out: Rho-A: % inh.): 76 to 100%; inhibition at 20 µM (KRas G12D mutant; with SOS, read-out: KRas G12D mutant + SOS: % inh.): 51 to 75%; inhibition at 20 µM (KRas G12D mutant; without SOS, read-out: KRas G12D mutant: % inh.): 76 to 100%
